For experiment [1], the target named is Angiopoietin-1 receptor (Homo sapiens) (UniProt Q02763). In words: Inhibition of TIE2 (unknown origin) at 1 uM relative to control.
Experiment [2] concerns the target T1, Serine/threonine-protein kinase Nek10 (Homo sapiens) (UniProt Q6ZWH5).
T1 sequence (whole entry): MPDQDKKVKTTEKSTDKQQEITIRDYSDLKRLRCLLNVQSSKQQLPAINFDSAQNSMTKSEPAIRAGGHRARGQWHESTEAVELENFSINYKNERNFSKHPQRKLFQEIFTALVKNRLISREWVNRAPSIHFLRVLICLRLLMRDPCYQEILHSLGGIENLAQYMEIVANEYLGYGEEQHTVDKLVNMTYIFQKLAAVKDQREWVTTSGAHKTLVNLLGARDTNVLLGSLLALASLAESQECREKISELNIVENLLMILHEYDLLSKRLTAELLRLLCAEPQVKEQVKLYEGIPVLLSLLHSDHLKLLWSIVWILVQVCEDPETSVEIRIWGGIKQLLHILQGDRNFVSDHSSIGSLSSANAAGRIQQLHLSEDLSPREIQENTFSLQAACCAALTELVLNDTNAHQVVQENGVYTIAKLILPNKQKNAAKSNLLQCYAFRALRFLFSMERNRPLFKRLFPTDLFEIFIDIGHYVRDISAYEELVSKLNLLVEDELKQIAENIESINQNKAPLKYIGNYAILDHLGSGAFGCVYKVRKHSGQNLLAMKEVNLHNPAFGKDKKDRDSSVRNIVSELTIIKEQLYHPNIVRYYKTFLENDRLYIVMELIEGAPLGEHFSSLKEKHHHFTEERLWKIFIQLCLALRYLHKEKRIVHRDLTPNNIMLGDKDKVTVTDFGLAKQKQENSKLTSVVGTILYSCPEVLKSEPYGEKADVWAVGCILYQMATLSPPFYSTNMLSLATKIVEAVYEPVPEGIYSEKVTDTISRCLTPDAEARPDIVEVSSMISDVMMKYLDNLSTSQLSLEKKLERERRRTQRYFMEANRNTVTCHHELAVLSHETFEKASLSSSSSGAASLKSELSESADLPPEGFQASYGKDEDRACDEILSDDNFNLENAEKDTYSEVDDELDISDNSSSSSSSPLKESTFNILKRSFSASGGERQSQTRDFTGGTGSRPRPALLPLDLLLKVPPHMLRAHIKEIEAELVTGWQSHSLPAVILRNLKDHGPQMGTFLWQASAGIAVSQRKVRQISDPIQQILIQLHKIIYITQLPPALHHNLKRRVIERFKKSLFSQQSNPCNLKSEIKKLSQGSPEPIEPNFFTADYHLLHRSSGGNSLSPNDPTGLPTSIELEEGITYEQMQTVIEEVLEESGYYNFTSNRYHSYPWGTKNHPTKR
The experiment in a line: Inhibition of NEK10 (unknown origin) at 1 uM relative to control.

In experiment [3] the target is Fibroblast growth factor receptor 3 (Homo sapiens) (UniProt P22607). The experiment in a line: Inhibition of FGFR3 (unknown origin) at 1 uM relative to control.
For experiment [4], the target named is T2, Cytoplasmic tyrosine-protein kinase BMX (Homo sapiens) (UniProt P51813).
T2 sequence (whole entry): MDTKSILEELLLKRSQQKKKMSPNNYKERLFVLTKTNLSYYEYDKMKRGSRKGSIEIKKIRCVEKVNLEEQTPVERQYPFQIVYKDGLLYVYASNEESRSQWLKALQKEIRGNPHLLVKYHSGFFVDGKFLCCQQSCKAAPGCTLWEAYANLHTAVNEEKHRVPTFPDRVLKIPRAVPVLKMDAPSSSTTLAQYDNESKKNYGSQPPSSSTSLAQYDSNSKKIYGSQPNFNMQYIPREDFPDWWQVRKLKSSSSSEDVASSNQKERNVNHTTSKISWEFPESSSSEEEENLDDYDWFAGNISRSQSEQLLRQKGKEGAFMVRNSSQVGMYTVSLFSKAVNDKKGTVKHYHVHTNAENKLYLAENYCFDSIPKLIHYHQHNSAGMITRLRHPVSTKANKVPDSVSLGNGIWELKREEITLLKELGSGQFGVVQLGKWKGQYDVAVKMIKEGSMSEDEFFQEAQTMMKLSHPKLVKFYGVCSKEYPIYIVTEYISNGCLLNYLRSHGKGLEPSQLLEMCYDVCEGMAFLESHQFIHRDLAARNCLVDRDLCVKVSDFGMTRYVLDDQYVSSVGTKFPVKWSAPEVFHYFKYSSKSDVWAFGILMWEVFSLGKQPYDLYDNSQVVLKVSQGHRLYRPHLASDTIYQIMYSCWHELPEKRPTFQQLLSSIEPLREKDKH
In words: Inhibition of BMX (unknown origin) at 1 uM relative to control.

The target of experiment [5] is T3, Mitogen-activated protein kinase kinase kinase 19 (Homo sapiens) (UniProt Q56UN5).
T3 sequence (whole entry): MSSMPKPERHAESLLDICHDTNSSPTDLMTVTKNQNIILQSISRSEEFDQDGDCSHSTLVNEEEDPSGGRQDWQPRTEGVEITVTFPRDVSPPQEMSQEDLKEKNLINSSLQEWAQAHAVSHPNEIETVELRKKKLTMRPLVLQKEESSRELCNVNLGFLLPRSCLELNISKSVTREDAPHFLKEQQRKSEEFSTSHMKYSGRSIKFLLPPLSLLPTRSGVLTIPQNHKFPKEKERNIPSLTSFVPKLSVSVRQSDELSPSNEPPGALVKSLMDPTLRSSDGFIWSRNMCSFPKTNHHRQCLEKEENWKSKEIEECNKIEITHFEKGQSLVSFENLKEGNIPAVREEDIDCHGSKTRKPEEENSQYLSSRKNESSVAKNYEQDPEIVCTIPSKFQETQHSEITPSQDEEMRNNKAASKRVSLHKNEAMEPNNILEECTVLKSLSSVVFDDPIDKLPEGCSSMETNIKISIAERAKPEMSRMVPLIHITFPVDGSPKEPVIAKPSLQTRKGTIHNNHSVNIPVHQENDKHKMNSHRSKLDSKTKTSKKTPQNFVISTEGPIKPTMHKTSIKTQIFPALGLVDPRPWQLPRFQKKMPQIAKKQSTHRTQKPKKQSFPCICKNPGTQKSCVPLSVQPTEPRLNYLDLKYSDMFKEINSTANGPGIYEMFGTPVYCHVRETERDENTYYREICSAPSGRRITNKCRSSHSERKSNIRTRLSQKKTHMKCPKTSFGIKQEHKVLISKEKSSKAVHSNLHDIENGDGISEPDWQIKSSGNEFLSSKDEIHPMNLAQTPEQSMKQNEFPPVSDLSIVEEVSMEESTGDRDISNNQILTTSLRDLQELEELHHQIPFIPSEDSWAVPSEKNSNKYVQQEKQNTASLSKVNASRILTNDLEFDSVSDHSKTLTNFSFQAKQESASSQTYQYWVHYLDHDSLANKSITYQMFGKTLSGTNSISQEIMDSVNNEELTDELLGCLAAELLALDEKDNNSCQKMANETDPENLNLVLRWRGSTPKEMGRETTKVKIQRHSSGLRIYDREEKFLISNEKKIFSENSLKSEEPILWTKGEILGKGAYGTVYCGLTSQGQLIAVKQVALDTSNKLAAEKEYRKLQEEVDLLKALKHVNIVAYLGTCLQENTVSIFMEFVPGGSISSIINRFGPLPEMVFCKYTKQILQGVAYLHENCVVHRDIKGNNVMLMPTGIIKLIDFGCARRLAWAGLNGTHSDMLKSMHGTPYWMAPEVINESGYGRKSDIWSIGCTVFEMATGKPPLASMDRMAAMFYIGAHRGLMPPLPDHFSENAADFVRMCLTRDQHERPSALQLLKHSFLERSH
In words: Inhibition of YSK4 (unknown origin) at 1 uM relative to control.

The target in experiment [6] is T4, Serine/threonine-protein kinase Nek2 (Homo sapiens) (UniProt P51955).
T4 sequence (whole entry): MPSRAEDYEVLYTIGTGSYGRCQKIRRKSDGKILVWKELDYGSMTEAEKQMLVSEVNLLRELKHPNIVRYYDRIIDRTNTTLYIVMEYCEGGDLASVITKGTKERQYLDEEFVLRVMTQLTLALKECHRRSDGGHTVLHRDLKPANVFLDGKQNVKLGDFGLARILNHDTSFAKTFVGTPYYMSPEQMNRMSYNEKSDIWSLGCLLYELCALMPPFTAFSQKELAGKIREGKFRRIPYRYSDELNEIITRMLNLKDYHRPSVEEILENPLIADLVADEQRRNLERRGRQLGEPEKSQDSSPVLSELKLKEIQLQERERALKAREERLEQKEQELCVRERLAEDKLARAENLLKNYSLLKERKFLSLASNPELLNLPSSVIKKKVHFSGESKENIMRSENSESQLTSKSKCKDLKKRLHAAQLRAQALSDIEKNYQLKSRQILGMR
In words: Inhibition of NEK2 (unknown origin) at 1 uM relative to control.

The target in experiment [7] is Serine/threonine-protein kinase Nek6 (Homo sapiens) (UniProt Q9HC98). In words: Inhibition of NEK6 (unknown origin) at 1 uM relative to control.
Experiment [8] deals with T5, Serine/threonine-protein kinase Nek5 (Homo sapiens) (UniProt Q6P3R8).
T5 sequence (whole entry): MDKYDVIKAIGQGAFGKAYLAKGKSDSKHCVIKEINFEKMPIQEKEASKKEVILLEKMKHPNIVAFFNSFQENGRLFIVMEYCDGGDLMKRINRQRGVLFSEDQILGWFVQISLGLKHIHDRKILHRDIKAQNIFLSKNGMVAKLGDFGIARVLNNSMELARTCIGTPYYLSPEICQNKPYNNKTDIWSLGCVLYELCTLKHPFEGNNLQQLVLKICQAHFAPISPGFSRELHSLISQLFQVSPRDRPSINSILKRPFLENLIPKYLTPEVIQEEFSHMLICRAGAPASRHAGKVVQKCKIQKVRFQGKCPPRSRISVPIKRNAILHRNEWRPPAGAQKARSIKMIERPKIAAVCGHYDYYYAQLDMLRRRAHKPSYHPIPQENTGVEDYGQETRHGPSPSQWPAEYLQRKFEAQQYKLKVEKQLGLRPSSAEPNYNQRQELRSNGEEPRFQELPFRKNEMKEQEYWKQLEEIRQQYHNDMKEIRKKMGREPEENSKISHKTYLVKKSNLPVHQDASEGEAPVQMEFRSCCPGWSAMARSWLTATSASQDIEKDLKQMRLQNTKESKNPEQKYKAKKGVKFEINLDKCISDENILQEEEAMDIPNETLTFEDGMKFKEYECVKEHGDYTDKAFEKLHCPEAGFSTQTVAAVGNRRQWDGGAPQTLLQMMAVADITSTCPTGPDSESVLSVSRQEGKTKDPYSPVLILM
In words: Inhibition of NEK5 (unknown origin) at 1 uM relative to control.

For experiment [9], the target named is Serine/threonine-protein kinase Nek7 (Homo sapiens) (UniProt Q8TDX7). In words: Inhibition of NEK7 (unknown origin) at 1 uM relative to control.
The target in experiment [10] is T6, Serine/threonine-protein kinase Nek11 (Homo sapiens) (UniProt Q8NG66).
T6 sequence (whole entry): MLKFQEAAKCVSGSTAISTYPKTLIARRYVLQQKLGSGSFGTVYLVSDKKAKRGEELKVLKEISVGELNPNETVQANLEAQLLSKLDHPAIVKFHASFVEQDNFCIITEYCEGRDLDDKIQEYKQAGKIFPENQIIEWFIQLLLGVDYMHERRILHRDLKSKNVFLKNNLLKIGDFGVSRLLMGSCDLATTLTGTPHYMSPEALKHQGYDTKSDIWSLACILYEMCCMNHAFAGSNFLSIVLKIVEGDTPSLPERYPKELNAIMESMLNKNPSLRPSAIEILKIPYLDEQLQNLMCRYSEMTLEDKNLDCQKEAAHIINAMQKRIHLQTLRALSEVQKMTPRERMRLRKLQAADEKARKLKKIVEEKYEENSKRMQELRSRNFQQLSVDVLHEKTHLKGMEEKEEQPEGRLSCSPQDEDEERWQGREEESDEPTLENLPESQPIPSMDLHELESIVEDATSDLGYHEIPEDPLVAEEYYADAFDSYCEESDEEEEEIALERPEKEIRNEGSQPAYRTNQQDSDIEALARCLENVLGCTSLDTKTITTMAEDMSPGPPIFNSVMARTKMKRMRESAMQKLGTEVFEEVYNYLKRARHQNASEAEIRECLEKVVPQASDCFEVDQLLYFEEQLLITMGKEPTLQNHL
In words: Inhibition of NEK11 (unknown origin) at 1 uM relative to control.

The target in experiment [11] is T7, Serine/threonine-protein kinase Nek3 (Homo sapiens) (UniProt P51956).
T7 sequence (whole entry): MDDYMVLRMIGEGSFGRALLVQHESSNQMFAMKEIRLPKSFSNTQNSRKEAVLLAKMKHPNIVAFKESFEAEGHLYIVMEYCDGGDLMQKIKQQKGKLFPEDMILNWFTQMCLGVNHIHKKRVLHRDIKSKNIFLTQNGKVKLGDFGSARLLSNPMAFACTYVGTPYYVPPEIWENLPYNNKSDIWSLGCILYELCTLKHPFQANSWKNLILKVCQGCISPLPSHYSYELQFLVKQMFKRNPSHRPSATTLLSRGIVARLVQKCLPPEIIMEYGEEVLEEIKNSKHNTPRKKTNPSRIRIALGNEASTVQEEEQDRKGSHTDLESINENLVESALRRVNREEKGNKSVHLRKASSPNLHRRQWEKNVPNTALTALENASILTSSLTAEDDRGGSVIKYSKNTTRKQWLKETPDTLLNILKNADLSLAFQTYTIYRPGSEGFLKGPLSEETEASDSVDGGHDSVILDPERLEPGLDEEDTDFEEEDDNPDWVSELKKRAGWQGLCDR
In words: Inhibition of NEK3 (unknown origin) at 1 uM relative to control.

The source of these data is ChEMBL document CHEMBL5252509, “In depth analysis of kinase cross screening data to identify chemical starting points for inhibition of the Nek family of kinases” (Medchemcomm, 2018).

Sequence of Fibroblast growth factor receptor 3 (Homo sapiens) (P22607 23-806 limits assumed): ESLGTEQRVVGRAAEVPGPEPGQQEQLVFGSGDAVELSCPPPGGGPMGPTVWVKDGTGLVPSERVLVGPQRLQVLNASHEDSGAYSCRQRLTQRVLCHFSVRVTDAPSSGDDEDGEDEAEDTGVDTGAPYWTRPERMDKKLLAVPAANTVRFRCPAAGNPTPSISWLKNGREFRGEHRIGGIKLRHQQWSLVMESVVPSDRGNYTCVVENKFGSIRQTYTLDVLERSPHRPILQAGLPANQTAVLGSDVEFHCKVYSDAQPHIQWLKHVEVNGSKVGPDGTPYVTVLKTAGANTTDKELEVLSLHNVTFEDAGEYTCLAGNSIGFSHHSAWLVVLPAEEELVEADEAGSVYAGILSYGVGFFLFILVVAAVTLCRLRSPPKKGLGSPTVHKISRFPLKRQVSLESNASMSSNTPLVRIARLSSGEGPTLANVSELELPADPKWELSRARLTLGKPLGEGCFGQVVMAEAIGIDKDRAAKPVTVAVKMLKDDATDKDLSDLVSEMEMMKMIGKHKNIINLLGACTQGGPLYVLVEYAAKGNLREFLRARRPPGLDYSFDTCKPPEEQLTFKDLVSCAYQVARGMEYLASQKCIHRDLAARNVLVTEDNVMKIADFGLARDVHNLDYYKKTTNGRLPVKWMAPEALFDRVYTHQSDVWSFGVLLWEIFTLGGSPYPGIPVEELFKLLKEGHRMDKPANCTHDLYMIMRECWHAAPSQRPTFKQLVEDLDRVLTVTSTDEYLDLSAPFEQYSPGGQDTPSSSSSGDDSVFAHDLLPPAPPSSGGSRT
Sequence of Angiopoietin-1 receptor (Homo sapiens) (Q02763 whole entry): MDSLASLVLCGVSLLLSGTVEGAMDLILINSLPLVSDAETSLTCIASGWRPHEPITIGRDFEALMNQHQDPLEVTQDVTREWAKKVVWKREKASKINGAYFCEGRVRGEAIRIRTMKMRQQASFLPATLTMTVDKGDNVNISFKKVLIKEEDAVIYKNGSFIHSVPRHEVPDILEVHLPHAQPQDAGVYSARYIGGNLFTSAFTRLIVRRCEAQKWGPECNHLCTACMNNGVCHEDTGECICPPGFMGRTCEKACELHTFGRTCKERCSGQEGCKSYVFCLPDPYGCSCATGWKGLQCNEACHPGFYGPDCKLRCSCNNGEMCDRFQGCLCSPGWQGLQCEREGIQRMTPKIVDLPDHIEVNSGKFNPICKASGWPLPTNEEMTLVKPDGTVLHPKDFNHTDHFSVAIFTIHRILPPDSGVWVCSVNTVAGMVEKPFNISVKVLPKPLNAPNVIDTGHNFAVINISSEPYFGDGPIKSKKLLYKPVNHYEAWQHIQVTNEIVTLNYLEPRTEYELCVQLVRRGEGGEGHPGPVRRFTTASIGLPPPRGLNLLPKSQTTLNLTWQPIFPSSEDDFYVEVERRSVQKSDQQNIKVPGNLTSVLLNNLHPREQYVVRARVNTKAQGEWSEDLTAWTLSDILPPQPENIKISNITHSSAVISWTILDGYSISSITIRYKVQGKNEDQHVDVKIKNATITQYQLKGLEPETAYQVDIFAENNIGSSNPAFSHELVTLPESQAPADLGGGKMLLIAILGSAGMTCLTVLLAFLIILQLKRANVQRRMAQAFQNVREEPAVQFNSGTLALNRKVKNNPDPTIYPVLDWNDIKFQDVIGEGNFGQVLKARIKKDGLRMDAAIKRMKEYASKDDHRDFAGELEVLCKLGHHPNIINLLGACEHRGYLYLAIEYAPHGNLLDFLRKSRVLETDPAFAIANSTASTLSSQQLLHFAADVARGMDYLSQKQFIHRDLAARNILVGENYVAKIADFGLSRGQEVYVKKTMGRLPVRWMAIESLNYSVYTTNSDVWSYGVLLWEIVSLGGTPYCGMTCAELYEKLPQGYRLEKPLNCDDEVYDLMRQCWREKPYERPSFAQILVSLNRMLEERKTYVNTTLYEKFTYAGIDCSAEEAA
Sequence of Serine/threonine-protein kinase Nek6 (Homo sapiens) (Q9HC98 whole entry): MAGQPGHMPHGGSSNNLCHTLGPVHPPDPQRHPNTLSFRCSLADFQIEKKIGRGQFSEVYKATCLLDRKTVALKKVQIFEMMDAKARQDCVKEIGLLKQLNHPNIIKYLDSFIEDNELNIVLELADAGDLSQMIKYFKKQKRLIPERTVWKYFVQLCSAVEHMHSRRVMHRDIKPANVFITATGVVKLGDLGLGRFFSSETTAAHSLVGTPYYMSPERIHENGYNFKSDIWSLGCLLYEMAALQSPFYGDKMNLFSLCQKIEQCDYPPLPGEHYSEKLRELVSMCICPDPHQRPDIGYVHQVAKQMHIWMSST
Sequence of Serine/threonine-protein kinase Nek7 (Homo sapiens) (Q8TDX7 whole entry, looked up): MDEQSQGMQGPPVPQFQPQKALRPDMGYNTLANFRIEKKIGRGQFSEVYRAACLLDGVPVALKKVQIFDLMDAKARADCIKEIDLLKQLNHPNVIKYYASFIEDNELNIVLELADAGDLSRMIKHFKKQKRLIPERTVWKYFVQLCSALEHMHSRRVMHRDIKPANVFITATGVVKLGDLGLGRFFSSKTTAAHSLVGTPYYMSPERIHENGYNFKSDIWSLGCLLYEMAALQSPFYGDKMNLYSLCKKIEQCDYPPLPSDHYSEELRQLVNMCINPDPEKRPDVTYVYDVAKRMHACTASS

The inhibition is the percentage by which the read-out fell short of the control. Consider `NC(=O)c1nnc2ccccc2c1N`, for which the inhibition in experiment [1] stood at 98.7%; in experiment [2], 85%; in experiment [3], 90%; in experiment [4], 90.1%; in [5], 88%.

In turn, `CC[C@@H]1C(=O)N(C)c2cnc(Nc3ccc(C(=O)NC4CCN(C)CC4)cc3OC)nc2N1C1CCCC1` displayed an inhibition in experiment [6] of 72%.

`Cn1cc(-c2cccc3c(N)c(C(N)=O)nnc23)cn1`: the inhibition in experiment [1] is 1%; in [2], 48%; in [3] it was 12%; in experiment [4], 15%; in experiment [5], 94.4%.

With `CC(C)(C)c1nc(-c2cccc(NS(=O)(=O)c3c(F)cccc3F)c2F)c(-c2ccnc(N)n2)s1`, the inhibition turned out to be 0.3% in experiment [7]; 56% in experiment [2]; 75% in experiment [8]; 7% in [6]; 1.6% in experiment [9]; 0.2% in experiment [10]. Moreover, in experiment [11], the inhibition is 100%.
